Like-named read-outs stand apart in the source and are kept apart here.
Experiments:
[1] = target: dopamine transporter (Homo sapiens, UniProt Q01959); test: DA uptake: displacement of dopamine ligands in vitro (methods of Gu et al.)
[2] = target: serotonin transporter (Homo sapiens, UniProt P31645); test: 5-HT uptake: displacement of serotonin ligands in vitro (methods of Gu et al.); type: binding; conditions: displacement of serotonin ligands in vitro; read-out: 5-HT Uptake, Uptake Profile (IC50)
serotonin transporter, sequence (P31645 whole entry): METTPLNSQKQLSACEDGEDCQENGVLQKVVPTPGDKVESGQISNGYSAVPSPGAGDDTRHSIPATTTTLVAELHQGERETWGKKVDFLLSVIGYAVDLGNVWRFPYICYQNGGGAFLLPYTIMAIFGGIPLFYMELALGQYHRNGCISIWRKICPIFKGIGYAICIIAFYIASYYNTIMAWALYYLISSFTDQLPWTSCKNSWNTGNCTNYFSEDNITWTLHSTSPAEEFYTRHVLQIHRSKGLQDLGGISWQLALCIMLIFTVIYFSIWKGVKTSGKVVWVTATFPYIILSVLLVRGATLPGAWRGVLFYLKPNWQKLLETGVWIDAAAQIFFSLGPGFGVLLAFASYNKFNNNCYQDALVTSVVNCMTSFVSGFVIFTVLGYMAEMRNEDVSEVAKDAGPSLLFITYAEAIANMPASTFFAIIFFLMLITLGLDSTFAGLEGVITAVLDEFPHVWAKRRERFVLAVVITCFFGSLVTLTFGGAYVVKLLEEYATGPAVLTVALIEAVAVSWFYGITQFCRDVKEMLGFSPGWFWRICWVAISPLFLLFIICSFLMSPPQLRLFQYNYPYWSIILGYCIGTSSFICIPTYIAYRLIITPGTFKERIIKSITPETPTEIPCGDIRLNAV

[3] = target: norepinephrine transporter (Homo sapiens, UniProt P23975); test: NE uptake: displacement of norephinephrine ligands in vitro (methods of Galli et al.); type: binding
norepinephrine transporter, sequence (P23975 whole entry): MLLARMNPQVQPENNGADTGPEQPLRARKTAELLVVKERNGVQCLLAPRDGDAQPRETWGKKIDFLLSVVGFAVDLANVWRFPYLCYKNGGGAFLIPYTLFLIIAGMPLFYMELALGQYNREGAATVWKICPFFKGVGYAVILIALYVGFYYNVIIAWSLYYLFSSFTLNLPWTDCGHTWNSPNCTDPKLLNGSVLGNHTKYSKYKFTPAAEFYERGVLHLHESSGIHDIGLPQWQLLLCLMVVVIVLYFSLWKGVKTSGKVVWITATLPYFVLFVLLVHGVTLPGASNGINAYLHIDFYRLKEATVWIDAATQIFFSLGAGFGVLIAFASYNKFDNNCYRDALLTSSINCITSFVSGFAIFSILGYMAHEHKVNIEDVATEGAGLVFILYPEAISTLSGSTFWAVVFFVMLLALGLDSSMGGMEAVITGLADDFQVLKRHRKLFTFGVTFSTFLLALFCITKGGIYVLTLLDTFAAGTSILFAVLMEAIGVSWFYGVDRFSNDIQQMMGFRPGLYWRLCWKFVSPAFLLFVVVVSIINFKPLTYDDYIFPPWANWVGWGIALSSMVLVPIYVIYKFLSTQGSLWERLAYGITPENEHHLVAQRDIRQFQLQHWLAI

[4] = DA Uptake, Uptake Profile (IC50, nM), displacement of dopamine ligands in vitro
[5] = NE Uptake, Uptake Profile (IC50, nM)
[6] = read-out: NE Uptake, Uptake Profile (IC50)

dopamine transporter, sequence (Q01959 whole entry): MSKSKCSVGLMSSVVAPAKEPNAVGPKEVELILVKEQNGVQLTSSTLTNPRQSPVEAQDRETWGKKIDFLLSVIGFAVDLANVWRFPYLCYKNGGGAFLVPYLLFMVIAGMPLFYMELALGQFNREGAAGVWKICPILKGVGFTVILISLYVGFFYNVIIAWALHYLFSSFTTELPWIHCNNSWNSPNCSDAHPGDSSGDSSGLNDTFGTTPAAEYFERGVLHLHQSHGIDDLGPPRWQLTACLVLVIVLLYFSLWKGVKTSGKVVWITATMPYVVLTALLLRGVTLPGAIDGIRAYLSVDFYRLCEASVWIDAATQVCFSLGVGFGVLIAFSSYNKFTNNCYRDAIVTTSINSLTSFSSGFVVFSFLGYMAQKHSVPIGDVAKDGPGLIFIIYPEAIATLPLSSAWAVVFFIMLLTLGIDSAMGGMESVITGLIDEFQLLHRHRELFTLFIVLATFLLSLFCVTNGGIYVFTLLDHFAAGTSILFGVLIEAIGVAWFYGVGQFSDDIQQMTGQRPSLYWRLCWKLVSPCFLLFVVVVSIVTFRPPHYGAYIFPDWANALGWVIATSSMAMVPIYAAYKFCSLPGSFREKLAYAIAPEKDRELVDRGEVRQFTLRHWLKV

Row | SMILES | IC50 [1, 4] [nM] | IC50 [2] [nM] | IC50 [3, 5] [nM] | IC50 ([1]; read-out: DA Uptake, Uptake Profile (IC50), displacement of dopamine ligands in vitro) [nM] | IC50 [3, 6] [nM] | IC50 [1] [nM]
1 | CN(C)CC(Oc1ccc(C(F)(F)F)cc1)C1CCCN(C(=O)C2(c3ccc(Cl)cc3)CCC2)C1 (racemic) [compound 173] | > 1000 | < 100 | > 1000 |  |  | 
2 | CN(C)CC(Oc1ccc(C(F)(F)F)cc1)C1CCCN(CC2(c3ccc(Cl)cc3)CCC2)C1 (racemic) [compound 174] | < 100 | < 100 | < 1000 |  |  | 
3 | CN(C)CC(Oc1ccc(C(F)(F)F)cc1)C1CCCN(CC2(c3ccc(Cl)cc3)CCC2)C1 (racemic) [compound 175] | < 1000 | < 1000 | > 1000 |  |  | 
4 | Clc1ccc(C2(CN3CCCC(COc4ccccc4)C3)CCC2)cc1 (single isomer, unassigned) [compound 5] | < 1000 |  |  |  |  | 
5 | Clc1ccc(C2(CN3CCCC(COc4ccccc4)C3)CCC2)cc1 (single isomer, unassigned) [compound 6] |  |  |  | < 1000 |  | 
6 | OC(CN1CCCC(CCc2ccccc2)C1)c1ccc(Cl)cc1 (single isomer, unassigned) [compound 141, 1-(4-Chloro-phenyl)-2-(3-phenethyl-piperidin-1-yl)-ethanol] | < 1000 | < 1000 | < 1000 |  |  | 
7 | OC(CN1CCCC(CCc2ccccc2)C1)c1ccc(Cl)cc1 (single isomer, unassigned) [compound 142, 1-(4-Chloro-phenyl)-2-(3-phenethyl-piperidin-1-yl)-ethanol] | < 1000 | < 100 | < 1000 |  |  | 
8 | OC(CN1CCCC(CCc2ccc(C(F)(F)F)cc2)C1)c1ccc(Cl)cc1 (single isomer, unassigned) [compound 151, 1-(4-Chloro-phenyl)-2-{3-[2-(4-trifluoromethyl-phenyl)-ethyl]-piperidin-1-yl}-ethanol] | < 1000 | < 1000 | < 1000 |  |  | 
9 | OC(CN1CCCC(CCc2ccc(C(F)(F)F)cc2)C1)c1ccc(Cl)cc1 (single isomer, unassigned) [compound 152, 1-(4-Chloro-phenyl)-2-{3-[2-(4-trifluoromethyl-phenyl)-ethyl]-piperidin-1-yl}-ethanol] | < 1000 | < 100 | < 1000 |  |  | 
10 | OC(CN1CCCC(CCc2ccc(C(F)(F)F)cc2)C1)c1ccc(Cl)cc1 (single isomer, unassigned) [compound 153, 1-(4-Chloro-phenyl)-2-{3-[2-(4-trifluoromethyl-phenyl)-ethyl]-piperidin-1-yl}-ethanol] | < 100 | < 10 | < 100 |  |  | 
11 | OC(CN1CCCC(CCc2ccc(C(F)(F)F)cc2)C1)c1ccc(Cl)cc1 (single isomer, unassigned) [compound 154, 1-(4-Chloro-phenyl)-2-{3-[2-(4-trifluoromethyl-phenyl)-ethyl]-piperidin-1-yl}-ethanol] | < 10 | < 10 | < 100 |  |  | 
12 | FC(F)(F)c1ccc(OCC2CCCN(CC3COc4ccccc4O3)C2)cc1 (single isomer, unassigned) [compound 176, 1-(2,3-Dihydro-benzo[1,4]dioxin-2-ylmethyl)-3-(4-trifluoromethyl-phenoxymethyl)-piperidine] | < 1000 | < 1000 | > 1000 |  |  | 
13 | FC(F)(F)c1ccc(OCC2CCCN(CC3COc4ccccc4O3)C2)cc1 (single isomer, unassigned) [compound 177, 1-(2,3-Dihydro-benzo[1,4]dioxin-2-ylmethyl)-3-(4-trifluoromethyl-phenoxymethyl)-piperidine] | > 1000 | < 1000 | > 1000 |  |  | 
14 | FC(F)(F)c1ccc(OCC2CCCN(CC3COc4ccccc4O3)C2)cc1 (single isomer, unassigned) [compound 178, 1-(2,3-Dihydro-benzo[1,4]dioxin-2-ylmethyl)-3-(4-trifluoromethyl-phenoxymethyl)-piperidine] | < 1000 | < 1000 | < 1000 |  |  | 
15 | FC(F)(F)c1ccc(OCC2CCCN(CC3COc4ccccc4O3)C2)cc1 (single isomer, unassigned) [compound 179, 1-(2,3-Dihydro-benzo[1,4]dioxin-2-ylmethyl)-3-(4-trifluoromethyl-phenoxymethyl)-piperidine] | > 1000 | < 1000 | < 1000 |  |  | 
16 | OC(CN1CCCC(CCc2ccc(C(F)(F)F)cc2)C1)C1(c2ccc(Cl)cc2)CCC1 (single isomer, unassigned) [compound 192, 1-[1-(4-Chloro-phenyl)-cyclobutyl]-2-{3-[2-(4-trifluoromethyl-phenyl)-ethyl]-piperidin-1-yl}-ethanol] | < 10 | < 1000 | < 1000 |  |  | 
17 | OC(CN1CCCC(CCc2ccc(C(F)(F)F)cc2)C1)C1(c2ccc(Cl)cc2)CCC1 (single isomer, unassigned) [compound 193, 1-[1-(4-Chloro-phenyl)-cyclobutyl]-2-{3-[2-(4-trifluoromethyl-phenyl)-ethyl]-piperidin-1-yl}-ethanol] | < 10 | < 1000 | < 10 |  |  | 

Row | SMILES | IC50 [1, 4] [nM] | IC50 [2] [nM] | IC50 [3, 5] [nM] | IC50 ([1]; read-out: DA Uptake, Uptake Profile (IC50), displacement of dopamine ligands in vitro) [nM] | IC50 [3, 6] [nM] | IC50 [1] [nM]
18 | OC(CN1CCCC(CCc2ccc(C(F)(F)F)cc2)C1)C1(c2ccc(Cl)cc2)CCC1 (single isomer, unassigned) [compound 194, 1-[1-(4-Chloro-phenyl)-cyclobutyl]-2-{3-[2-(4-trifluoromethyl-phenyl)-ethyl]-piperidin-1-yl}-ethanol] | < 10 | < 1000 | < 100 |  |  | 
19 | OC(CN1CCCC(CCc2ccc(C(F)(F)F)cc2)C1)C1(c2ccc(Cl)cc2)CCC1 (single isomer, unassigned) [compound 195, 1-[1-(4-Chloro-phenyl)-cyclobutyl]-2-{3-[2-(4-trifluoromethyl-phenyl)-ethyl]-piperidin-1-yl}-ethanol] | < 100 | < 1000 | < 1000 |  |  | 
20 | OC(CN1CCCC(COc2ccc(C(F)(F)F)cc2)C1)C1(c2ccccc2OC(F)(F)F)CCC1 (single isomer, unassigned) [compound 227, 1-[1-(2-Trifluoromethoxy-phenyl)-cyclobutyl]-2-[3-(4-trifluoromethyl-phenoxymethyl)-piperidin-1-yl]-ethanol] | < 1000 | < 1000 | > 1000 |  |  | 
21 | OC(CN1CCCC(COc2ccc(C(F)(F)F)cc2)C1)C1(c2ccccc2OC(F)(F)F)CCC1 (single isomer, unassigned) [compound 228, 1-[1-(2-Trifluoromethoxy-phenyl)-cyclobutyl]-2-[3-(4-trifluoromethyl-phenoxymethyl)-piperidin-1-yl]-ethanol] | > 1000 | > 1000 |  |  | > 1000 | 
22 | OC(C[C@H]1CCCN(CC2(c3ccc(Cl)cc3)CCC2)C1)c1ccccc1 (stereo in doubt) [compound 182, (S)-[2-{1-[1-(4-Chloro-phenyl)-cyclobutylmethyl]-piperidin-3-yl}-1-phenyl-ethanol]] | < 100 | < 1000 |  |  | > 1000 | 
23 | O=C(CC1CCCN(CC2(c3ccc(Cl)cc3)CCC2)C1)c1ccccc1 (stereo in doubt) [compound 183, (S)-[2-{1-[1-(4-Chloro-phenyl)-cyclobutylmethyl]-piperidin-3-yl}-1-phenyl-ethanone]] | < 1000 | < 1000 | < 1000 |  |  | 
24 | COC(CC1CCCN(CC2(c3ccc(Cl)cc3)CCC2)C1)c1ccccc1 (stereo in doubt) [compound 184, (S)-[1-[1-(4-Chloro-phenyl)-cyclobutylmethyl]-3-(2-methoxy-2-phenyl-ethyl)-piperidine]] | < 1000 | < 1000 | < 1000 |  |  | 
25 | CC(O)(C[C@H]1CCCN(CC2(c3ccc(Cl)cc3)CCC2)C1)c1ccccc1 (stereo in doubt) [compound 185, (S)-[1-{1-[1-(4-Chloro-phenyl)-cyclobutylmethyl]-piperidin-3-yl}-2-phenyl-propan-2-ol]] | < 1000 | > 1000 |  |  | > 1000 | 
26 | CC(CC1CCCN(CC2(c3ccc(Cl)cc3)CCC2)C1)c1ccccc1 (stereo in doubt) [compound 186, (S)-1-[1-(4-Chloro-phenyl)-cyclobutylmethyl]-3-(2-phenyl-propyl)-piperidine] | < 1000 | < 1000 | < 1000 |  |  | 
27 | O=C(N1CCCC(CO)C1)C1(c2ccc(Cl)cc2)CCC1 (centres unmarked) [compound 1, [1-(4-chloro-phenyl)-cyclobutyl]-(3-hydroxymethylpiperidin-1yl)-methadone] | > 1000 | > 1000 | > 1000 |  |  | 
28 | FC(F)(F)c1ccc(OCC2CCCN(CCc3ccc(Cl)cc3)C2)cc1 (centres unmarked) [compound 8, 1-[2-(4-Chloro-phenyl)-ethyl]-3-(4-trifluoromethyl-phenoxymethyl)-piperidine] | > 1000 |  |  |  | > 1000 | 
29 | FC(F)(F)c1ccc(OCC2CN(CC3(c4ccc(Cl)cc4)CCC3)CCCO2)cc1 (centres unmarked) [compound 11] | < 1000 | > 1000 | > 1000 |  |  | 
30 | FC(F)(F)c1ccc(OCC2CNCCCO2)cc1 (centres unmarked) [compound 15, 2-(4-trifluoromethyl-phenoxymethyl)-[1,4]oxazepane] | > 1000 | > 1000 |  |  | > 1000 | 
31 | O=C(N1CCCOC(COc2ccc(C(F)(F)F)cc2)C1)C1(c2ccc(Cl)cc2)CCC1 (centres unmarked) [compound 16, [1-(4-Chloro-phenyl)-cyclobutyl]-[2-(4-trifluoromethyl-phenoxymethyl)-[1,4]oxazepan-4-yl]-methanone] |  | > 1000 |  |  | > 1000 | > 1000
32 | O=C(CN1CCCC(COc2ccccc2)C1)C1(c2ccc(Cl)cc2)CCC1 (centres unmarked) [compound 20, 1-[1-(4-Chlorophenyl)cyclobutyl]-2-(3-phenoxymethylpiperidin-1-yl)ethanone] | < 1000 | < 1000 | < 1000 |  |  | 
33 | Clc1ccc(C2(CN3CCC[C@@H](COc4ccccc4)C3)CCC2)cc1 [compound 72] | < 1000 |  |  |  |  | 

Reference: patent publication US7294637B2 (Sepracor, Inc., priority 2000, dated 2007)
